In experiment [1] the target is T1, Ser83Phe-Asp87Asn double-mutant S. Typhimurium DNA gyrase (Salmonella typhimurium, UniProt P0A2I3+P37411, D87N/S83F).
T1 construct: made in house; host or cells: Escherichia coli BL21(DE3)
Briefly: Fluoroquinolone-inhibited DNA supercoiling assay, GyrA Ser83Phe-Asp87Asn DNA gyrase. Type of experiment: biochemical. The settings on record: for IC50 against double-mutant DNA gyrase relative to WT: ratio IC50 double mutant / WT; for IC50: supercoiling assay, GyrA double mutant Ser83Phe-Asp87Asn, read-out: IC50s ± SD, Ser83Phe-Asp87Asn (converted). The source says:
(§1) Recombinant DNA gyrase was obtained as separate subunits, GyrA and GyrB. In total, plasmids encoding nine subunits including WT GyrA and GyrB as well as seven GyrA with amino acid substitutions (Ser83Phe, Ser83Ile, Ser83Tyr, Asp87Gly, Asp87Asn, Asp87Tyr, and […]) in the quinolone resistance determining region were constructed as described in our previous study ([38]). These plasmids were introduced into Escherichia coli BL21(DE3) (Merck KGaA, Darmstadt, Germany), and protein expression was induced in the bacterial cells. A transformed E. coli was inoculated into Luria-Bertani broth supplemented with ampicillin (50 mg/L) and incubated at 37°C until the optical density value reached 0.60. Expression of GyrA and GyrB was induced by adding 1 mM isopropyl beta-D-1-thiogalactopyranoside (Wako Pure Chemical Industries Ltd, Osaka, Japan) followed by incubation at 16°C for 40 h (for GyrA), or 18°C for 13 h (for GyrB). To release the expressed protein, E. coli cells were harvested by centrifugation, suspended in a native binding buffer containing complete mini EDTA-free (Roche Applied Science, Mannheim, Germany), and then sonicated at a 30% duty cycle with 10 cycles of 40 s on and 40 s off (Sonifier 250; Branson, Danbury, CT). The recombinant DNA gyrase subunits were purified by column chromatography using Ni-NTA agarose resin (Thermo Fisher Scientific, Inc., Waltham, MA) and dialyzed against DNA gyrase dilution buffer [50 mM Tris-HCl, pH 7.5; 100 mM KCl, 2 mM dithiothreitol (DTT), 1 mM EDTA]. The obtained protein was mixed with glycerol to prevent denaturation and stored in small aliquots at −80°C for future use. The protein purity was assessed by sodium dodecyl sulfate-polyacrylamide gel electrophoresis (SDS-PAGE) (ATTO, Tokyo, Japan) as shown in Fig. 7.
The reaction mixture was incubated at 37°C for 60 min and then the reaction was halted by adding 8 µL of stop solution (5% SDS, 25% glycerol, and 0.25 mg/mL of bromophenol blue) ([45]). Next, 10 µL of each reaction mixture was subjected to gel electrophoresis for 80 min at 50 mA in 1.2% agarose gel in 1×Tris-acetate-EDTA (TAE) buffer. Subsequently, the gel was stained with 0.5 µg/mL of ethidium bromide for 30 min. The presence of supercoiled DNA can be easily distinguished as a separated band under the UV light. The amount of supercoiled DNA was quantified by its intensity using ImageJ, the digital image processing software (https://imagej.nih.gov/ij/download.html).

Experiment [2] addresses T2, WT S. Typhimurium DNA gyrase (Salmonella typhimurium, UniProt P0A2I3+P37411).
T2 construct: made in house; host or cells: Escherichia coli BL21(DE3)
The experiment is described as follows: Fluoroquinolone-mediated DNA cleavage assay, WT DNA gyrase. Type of experiment: biochemical.
Text: as §1, with “The recombinant DNA gyrase subunits were purified by column chromatography using Ni-NTA agarose resin (Thermo Fisher Scientific, Inc., Waltham, MA) and dialyzed against DNA gyrase dilution buffer [50 mM Tris-HCl, pH 7.5; 100 mM KCl, 2 mM dithiothreitol (DTT), 1 mM EDTA]. The obtained protein was mixed with glycerol to prevent denaturation and stored in small aliquots at −80°C for future use.” left out, “7. […]” for “7.”

For experiment [3], the target named is T3, Ser83Phe mutant S. Typhimurium DNA gyrase (Salmonella typhimurium, UniProt P0A2I3+P37411, S83F).
T3 construct: made in house; host or cells: Escherichia coli BL21(DE3)
The experiment is described as follows: Fluoroquinolone-inhibited DNA supercoiling assay, GyrA Ser83Phe DNA gyrase. In kind it is biochemical. The settings on record: read-out: IC50s ± SD, Ser83Phe (converted).
Text: as §1, with “The obtained protein was mixed with glycerol to prevent denaturation and stored in small aliquots at −80°C for future use.” left out
(§2) The reaction mixture was incubated at 37°C for 60 min and then the reaction was halted by adding 8 µL of stop solution (5% SDS, 25% glycerol, and 0.25 mg/mL of bromophenol blue) ([45]). […] The amount of supercoiled DNA was quantified by its intensity using ImageJ, the digital image processing software (https://imagej.nih.gov/ij/download.html).

For experiment [4], the system named is S. Typhimurium NBRC 13245. Briefly: microbe, parasite or virus in culture. Type of experiment: cell-based, Salmonella Typhimurium. The settings on record: micro-broth dilution, 37°C, 16 h; for MIC: Salmonella enterica, read-out: MIC ± SD, S. Typhimurium. The protocol: (§3) A suspension containing approximately 5 × 10^5 CFU/mL of each Salmonella strain was transferred into 96-well plate containing serially diluted fluoroquinolones and incubated at 37°C for 16 h.

For experiment [5], the target named is T4, Asp87Asn mutant S. Typhimurium DNA gyrase (Salmonella typhimurium, UniProt P0A2I3+P37411, D87N).
T4 construct: made in house; host or cells: Escherichia coli BL21(DE3)
Briefly: Fluoroquinolone-inhibited DNA supercoiling assay, GyrA Asp87Asn DNA gyrase. Type of experiment: biochemical. The settings on record: read-out: IC50s ± SD, Ap87Asn (converted).
Text: as §1, with “The obtained protein was mixed with glycerol to prevent denaturation and stored in small aliquots at −80°C for future use.” left out
as §2

The target in experiment [6] is T2, WT S. Typhimurium DNA gyrase. The experiment is described as follows: Fluoroquinolone-inhibited DNA supercoiling assay, WT DNA gyrase. Type of experiment: biochemical. The settings on record: read-out: IC50s ± SD, WT (converted).
Text: as §1, with “The obtained protein was mixed with glycerol to prevent denaturation and stored in small aliquots at −80°C for future use.” left out
as §2

Experiment [7] has as its target T5, Ser83Tyr mutant S. Typhimurium DNA gyrase (Salmonella typhimurium, UniProt P0A2I3+P37411, S83Y).
T5 construct: made in house; host or cells: Escherichia coli BL21(DE3)
Briefly: Fluoroquinolone-inhibited DNA supercoiling assay, GyrA Ser83Tyr DNA gyrase. In kind it is biochemical. The settings on record: read-out: IC50s ± SD, Ser83Tyr (converted).
Text: as §1, with “The obtained protein was mixed with glycerol to prevent denaturation and stored in small aliquots at −80°C for future use.” left out
as §2

The next experiment concerns S. Enteritidis NBRC 3313. The experiment is described as follows: microbe, parasite or virus in culture. Type of experiment: cell-based, Salmonella Enteritidis. The settings on record: micro-broth dilution, 37°C, 16 h; for MIC: Salmonella enterica, read-out: MIC ± SD, S. Enteritidis. The method, then: as §3
Experiment [8] has as its target T6, Ser83Ile mutant S. Typhimurium DNA gyrase (Salmonella typhimurium, UniProt P0A2I3+P37411, S83I).
T6 construct: made in house; host or cells: Escherichia coli BL21(DE3)
Briefly: Fluoroquinolone-inhibited DNA supercoiling assay, GyrA Ser83Ile DNA gyrase. In kind it is biochemical. Particulars: read-out: IC50s ± SD, Ser83Ile (converted).
Text: as §1, with “The obtained protein was mixed with glycerol to prevent denaturation and stored in small aliquots at −80°C for future use.” left out
as §2

In experiment [9] the target is T7, Asp87Tyr mutant S. Typhimurium DNA gyrase (Salmonella typhimurium, UniProt P0A2I3+P37411, D87Y).
T7 construct: made in house; host or cells: Escherichia coli BL21(DE3)
The experiment is described as follows: Fluoroquinolone-inhibited DNA supercoiling assay, GyrA Asp87Tyr DNA gyrase. Type of experiment: biochemical.
Text: as §1, with “The obtained protein was mixed with glycerol to prevent denaturation and stored in small aliquots at −80°C for future use.” left out
as §2

In experiment [10] the target is T8, Asp87Gly mutant S. Typhimurium DNA gyrase (Salmonella typhimurium, UniProt P0A2I3+P37411, D87G).
T8 construct: made in house; host or cells: Escherichia coli BL21(DE3)
Briefly: Fluoroquinolone-inhibited DNA supercoiling assay, GyrA Asp87Gly DNA gyrase. In kind it is biochemical.
Text: as §1, with “The obtained protein was mixed with glycerol to prevent denaturation and stored in small aliquots at −80°C for future use.” left out
as §2

Experiment [11] concerns the target T9, GryA-Ser83Ile S. Typhimurium DNA gyrase (Salmonella typhimurium, UniProt P0A2I3+P37411, S83I).
T9 construct: made in house; host or cells: Escherichia coli BL21(DE3)
Briefly: Fluoroquinolone-mediated DNA cleavage assay, GyrA Ser83Ile DNA gyrase. Type of experiment: biochemical.
Text: as §1, with “The recombinant DNA gyrase subunits were purified by column chromatography using Ni-NTA agarose resin (Thermo Fisher Scientific, Inc., Waltham, MA) and dialyzed against DNA gyrase dilution buffer [50 mM Tris-HCl, pH 7.5; 100 mM KCl, 2 mM dithiothreitol (DTT), 1 mM EDTA]. The obtained protein was mixed with glycerol to prevent denaturation and stored in small aliquots at −80°C for future use.” left out, “7. […]” for “7.”

The structures appear in SMILES notation. ≈ marks a conversion by molar mass, not a printed value.

These results are taken from PMC10715191, “Exploration of the novel fluoroquinolones with high inhibitory effect against quinolone-resistant DNA gyrase of Salmonella Typhimurium” (Microbiology Spectrum, 2023).

T1 sequence (P37411 whole entry S83F/D87N, one chain of several): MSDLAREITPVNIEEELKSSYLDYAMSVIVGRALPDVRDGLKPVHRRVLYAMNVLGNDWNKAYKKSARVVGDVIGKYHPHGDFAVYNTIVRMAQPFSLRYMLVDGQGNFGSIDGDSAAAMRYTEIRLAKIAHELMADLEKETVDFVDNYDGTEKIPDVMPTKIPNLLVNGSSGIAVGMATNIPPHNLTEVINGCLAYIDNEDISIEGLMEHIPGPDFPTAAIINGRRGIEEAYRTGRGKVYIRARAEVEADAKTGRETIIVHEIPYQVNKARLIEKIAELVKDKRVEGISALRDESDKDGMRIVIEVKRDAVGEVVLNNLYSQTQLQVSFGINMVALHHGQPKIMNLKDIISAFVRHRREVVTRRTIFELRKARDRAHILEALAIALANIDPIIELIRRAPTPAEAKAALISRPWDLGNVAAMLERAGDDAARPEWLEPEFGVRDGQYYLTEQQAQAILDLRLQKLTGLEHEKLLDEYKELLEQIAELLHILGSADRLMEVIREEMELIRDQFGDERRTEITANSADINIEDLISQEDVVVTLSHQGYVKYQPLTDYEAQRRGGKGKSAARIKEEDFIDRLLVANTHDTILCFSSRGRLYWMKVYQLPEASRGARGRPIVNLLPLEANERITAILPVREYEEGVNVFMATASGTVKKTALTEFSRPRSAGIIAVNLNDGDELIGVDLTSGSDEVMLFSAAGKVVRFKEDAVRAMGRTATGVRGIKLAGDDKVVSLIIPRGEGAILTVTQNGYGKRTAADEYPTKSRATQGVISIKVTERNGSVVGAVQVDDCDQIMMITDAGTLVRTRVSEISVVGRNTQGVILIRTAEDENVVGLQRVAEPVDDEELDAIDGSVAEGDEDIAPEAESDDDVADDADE
T6 sequence (P37411 whole entry S83I, one chain of several): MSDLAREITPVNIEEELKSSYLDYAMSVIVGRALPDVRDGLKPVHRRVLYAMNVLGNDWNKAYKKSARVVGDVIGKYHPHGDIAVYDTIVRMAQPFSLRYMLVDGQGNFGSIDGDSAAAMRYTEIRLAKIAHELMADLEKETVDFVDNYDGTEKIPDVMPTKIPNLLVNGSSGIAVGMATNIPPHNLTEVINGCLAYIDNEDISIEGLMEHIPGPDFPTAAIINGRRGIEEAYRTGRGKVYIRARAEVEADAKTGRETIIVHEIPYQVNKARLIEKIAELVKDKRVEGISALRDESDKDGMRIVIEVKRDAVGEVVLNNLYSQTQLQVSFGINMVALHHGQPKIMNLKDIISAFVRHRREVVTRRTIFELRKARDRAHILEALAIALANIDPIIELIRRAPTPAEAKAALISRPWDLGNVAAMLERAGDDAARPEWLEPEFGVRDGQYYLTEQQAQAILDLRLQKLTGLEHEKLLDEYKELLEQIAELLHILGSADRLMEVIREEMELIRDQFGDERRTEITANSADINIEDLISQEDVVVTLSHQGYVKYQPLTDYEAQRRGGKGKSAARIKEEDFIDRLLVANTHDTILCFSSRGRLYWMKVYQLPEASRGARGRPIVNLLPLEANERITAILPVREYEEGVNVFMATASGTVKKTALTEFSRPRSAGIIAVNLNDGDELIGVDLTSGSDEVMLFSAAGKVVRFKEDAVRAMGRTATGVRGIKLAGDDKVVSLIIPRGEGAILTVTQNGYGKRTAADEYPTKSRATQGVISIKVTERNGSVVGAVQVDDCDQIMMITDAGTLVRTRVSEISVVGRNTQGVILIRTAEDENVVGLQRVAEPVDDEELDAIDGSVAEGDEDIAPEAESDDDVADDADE
T3 sequence (P37411 whole entry S83F, one chain of several): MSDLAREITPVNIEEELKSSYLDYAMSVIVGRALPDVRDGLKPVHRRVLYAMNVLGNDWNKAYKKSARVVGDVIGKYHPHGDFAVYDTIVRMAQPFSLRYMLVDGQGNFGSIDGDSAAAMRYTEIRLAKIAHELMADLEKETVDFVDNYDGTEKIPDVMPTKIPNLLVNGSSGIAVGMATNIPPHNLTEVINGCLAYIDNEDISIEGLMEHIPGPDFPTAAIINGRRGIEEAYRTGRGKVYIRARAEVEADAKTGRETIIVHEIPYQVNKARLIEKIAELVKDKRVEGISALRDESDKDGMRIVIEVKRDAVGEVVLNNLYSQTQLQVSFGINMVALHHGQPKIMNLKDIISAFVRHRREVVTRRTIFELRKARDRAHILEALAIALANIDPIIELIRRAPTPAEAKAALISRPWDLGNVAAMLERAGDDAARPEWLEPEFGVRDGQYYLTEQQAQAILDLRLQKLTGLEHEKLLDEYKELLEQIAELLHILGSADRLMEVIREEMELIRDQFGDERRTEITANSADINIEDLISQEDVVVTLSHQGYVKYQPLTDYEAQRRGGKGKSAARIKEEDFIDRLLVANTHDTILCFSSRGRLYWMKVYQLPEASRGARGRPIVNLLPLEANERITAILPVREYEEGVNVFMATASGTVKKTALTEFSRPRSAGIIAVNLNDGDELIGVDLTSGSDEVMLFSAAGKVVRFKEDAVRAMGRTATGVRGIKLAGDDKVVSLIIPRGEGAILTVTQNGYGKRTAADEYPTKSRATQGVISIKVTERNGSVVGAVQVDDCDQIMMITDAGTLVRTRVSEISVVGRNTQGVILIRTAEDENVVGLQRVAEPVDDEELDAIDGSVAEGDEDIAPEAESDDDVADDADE
T5 sequence (P37411 whole entry S83Y, one chain of several): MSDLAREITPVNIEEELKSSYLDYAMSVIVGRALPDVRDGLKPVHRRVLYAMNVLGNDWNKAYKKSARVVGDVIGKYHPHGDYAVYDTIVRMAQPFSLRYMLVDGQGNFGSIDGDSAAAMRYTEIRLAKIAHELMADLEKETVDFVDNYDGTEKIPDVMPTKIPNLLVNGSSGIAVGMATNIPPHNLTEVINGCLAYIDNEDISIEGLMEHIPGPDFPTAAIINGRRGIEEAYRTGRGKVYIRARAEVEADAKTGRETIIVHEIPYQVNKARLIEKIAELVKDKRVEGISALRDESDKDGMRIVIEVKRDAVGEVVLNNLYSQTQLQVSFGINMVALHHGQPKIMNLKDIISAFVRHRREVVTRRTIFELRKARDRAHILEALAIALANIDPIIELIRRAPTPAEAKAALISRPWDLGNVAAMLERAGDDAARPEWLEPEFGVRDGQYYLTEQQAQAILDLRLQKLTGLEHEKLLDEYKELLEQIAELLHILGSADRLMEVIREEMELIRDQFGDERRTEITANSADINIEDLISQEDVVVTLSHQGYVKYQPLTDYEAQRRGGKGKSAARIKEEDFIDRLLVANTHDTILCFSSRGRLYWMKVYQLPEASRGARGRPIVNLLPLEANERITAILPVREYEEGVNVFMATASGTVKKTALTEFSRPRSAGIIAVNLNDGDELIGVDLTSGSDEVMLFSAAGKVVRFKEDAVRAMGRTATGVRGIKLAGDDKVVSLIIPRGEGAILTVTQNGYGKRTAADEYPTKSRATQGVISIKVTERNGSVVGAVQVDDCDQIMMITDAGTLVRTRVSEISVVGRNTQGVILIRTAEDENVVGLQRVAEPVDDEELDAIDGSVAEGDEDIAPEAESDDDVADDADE
T4 sequence (P37411 whole entry D87N, one chain of several): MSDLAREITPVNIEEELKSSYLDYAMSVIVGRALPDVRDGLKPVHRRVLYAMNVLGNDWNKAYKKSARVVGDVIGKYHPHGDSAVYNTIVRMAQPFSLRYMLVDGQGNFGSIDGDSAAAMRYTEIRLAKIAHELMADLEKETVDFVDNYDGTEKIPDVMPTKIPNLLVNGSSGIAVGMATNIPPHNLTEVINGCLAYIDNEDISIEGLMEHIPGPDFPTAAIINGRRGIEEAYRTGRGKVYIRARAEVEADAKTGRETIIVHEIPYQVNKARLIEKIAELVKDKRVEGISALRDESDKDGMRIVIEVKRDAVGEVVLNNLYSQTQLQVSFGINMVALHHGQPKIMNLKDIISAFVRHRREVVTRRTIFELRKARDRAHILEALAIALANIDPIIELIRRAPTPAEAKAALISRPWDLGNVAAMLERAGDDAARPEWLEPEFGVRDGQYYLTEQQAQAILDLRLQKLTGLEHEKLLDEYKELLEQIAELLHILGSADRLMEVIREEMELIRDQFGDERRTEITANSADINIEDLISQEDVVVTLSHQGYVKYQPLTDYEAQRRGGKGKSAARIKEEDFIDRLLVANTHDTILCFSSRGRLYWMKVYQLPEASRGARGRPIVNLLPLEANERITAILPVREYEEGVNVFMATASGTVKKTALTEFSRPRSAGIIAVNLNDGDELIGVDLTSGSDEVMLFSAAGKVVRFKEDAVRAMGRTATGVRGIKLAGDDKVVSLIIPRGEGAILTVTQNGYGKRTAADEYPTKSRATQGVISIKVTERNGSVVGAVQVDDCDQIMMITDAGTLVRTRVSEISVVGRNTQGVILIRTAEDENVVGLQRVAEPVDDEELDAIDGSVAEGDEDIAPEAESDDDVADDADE

As to `Nc1nc(-n2cc(C(=O)O)c(=O)c3cc(F)c(N4CC(O)C4)c(Cl)c32)c(F)cc1F` [WQ-3034], the “IC50 against double-mutant DNA gyrase relative to WT” value in experiment [1] is reported as 59 fold. For the same molecule, the IC50 was 2680 nM in experiment [1]; 59 nM in [3]; 1020 nM in [5]; 45.4 nM in experiment [6]; 495 nM in experiment [7]; 1910 nM in [8]. In addition, the figures for the IC50 in experiment [9] and in [10] were 68.1 nM and 54.5 nM, respectively. Besides, the “CC25s, WT (concentration that induces 25% of maximum DNA cleavage)” value in experiment [2] was found to be 0.16 µg/mL. The MIC was 0.08 µg/mL (≈ 0.182 µM) in experiment [4] and 0.016 µg/mL (≈ 0.0363 µM) with S. Enteritidis NBRC 3313. In addition, the “MIC ± SD, S. Typhimurium” value in experiment [4] is 0.08 µg/mL (≈ 0.182 µM). The “MIC ± SD, S. Enteritidis” value in the experiment on S. Enteritidis NBRC 3313 amounted to 0.16 µg/mL (≈ 0.363 µM). Moreover, the “CC25s, Ser83Ile (concentration that induces 25% of maximum DNA cleavage)” value in experiment [11] amounted to 0.58 µg/mL.

As to `Cc1c(N2CC(O)C2)c(F)cc2c(=O)c(C(=O)O)cn(-c3nc(N)c(F)cc3F)c12` [WQ-3154], in experiment [1], the “IC50 against double-mutant DNA gyrase relative to WT” value came out at 70 fold. Besides, the IC50 was 4310 nM in experiment [1]; 71.4 nM in [3]; 2080 nM in [5]; 61.9 nM in experiment [6]; 592 nM in experiment [7]; 2750 nM in experiment [8]. The results for the IC50 in [9] and in [10] were 80.9 nM and 83.3 nM, respectively. Moreover, the MIC (in experiment [4]; with S. Enteritidis NBRC 3313) was 0.08 µg/mL (≈ 0.19 µM) throughout. In addition, the “MIC ± SD, S. Typhimurium” value in [4] was found to be 0.08 µg/mL (≈ 0.19 µM). Further, the “MIC ± SD, S. Enteritidis” value against S. Enteritidis NBRC 3313 came out at 0.08 µg/mL (≈ 0.19 µM).

As for `Cc1c(N2CC(NC(C)C)C2)c(F)cc2c(=O)c(C(=O)O)cn(-c3nc(N)c(F)cc3F)c12` [WQ-3810], in experiment [1], the “IC50 against double-mutant DNA gyrase relative to WT” value is 110 fold. Further, the IC50 in experiment [1] was 7910 nM; in experiment [3] it was 113 nM; in experiment [5], 1290 nM; in [6], 71.5 nM; in experiment [7], 897 nM; in [8] it was 2510 nM. Further, the IC50 in experiment [9] is 71.5 nM; in experiment [10] it was 69.3 nM. Also, the MIC (in experiment [4]; in the experiment with S. Enteritidis NBRC 3313) was 0.04 µg/mL (≈ 0.0867 µM) in each case. Also, in experiment [4], the “MIC ± SD, S. Typhimurium” value was 0.04 µg/mL (≈ 0.0867 µM). For the same molecule, the “MIC ± SD, S. Enteritidis” value against S. Enteritidis NBRC 3313 stood at 0.04 µg/mL (≈ 0.0867 µM).
